Assay results as given in patent publication US20200148617A1, “GEMCABENE, PHARMACEUTICALLY ACCEPTABLE SALTS THEREOF, COMPOSITIONS THEREOF AND METHODS OF USE THEREFOR” (GEMPHIRE THERAPEUTICS INC., priority 2017, published 2020).
Where two headings read alike, the source gives them in different places.

Key:
[1] = Steady-state plasma gemcabene pharmacokinetics, 600 mg daily, healthy female subjects; type: in vivo; conditions: human, oral
Experimental: (§1) An open-label, two-sequence, cross-over study to assess the steady-state effects of gemcabene on the single-dose pharmacokinetics (PK) of oral contraceptive tablets in healthy female subjects was conducted with 300 mg tablets containing gemcabene calcium salt hydrate Crystal Form 1 having PSD90 of 52 μm (Tablet F).
(§2) The population for this study was generally healthy, adult female subjects of childbearing potential (≥18 to ≤35 years of age). This population supports the overall objective of the study to evaluate the effect of 600 mg of gemcabene calcium salt hydrate Crystal Form 1 having PSD90 of 52 μm at steady-state on the PK of a single dose of ON 1/35 (Ortho Novum 1/35; combined ethinyl estradiol/norethindrone oral contraceptive). The primary objective of this study was to assess the effect of daily 600 mg of gemcabene calcium salt hydrate Crystal Form 1 having PSD90 of 52 μm at steady-state on the pharmacokinetics (PK) of ON 1/35. The secondary objectives of this study were to assess the safety and tolerability of daily gemcabene 600 mg in combination with a single-dose ON 1/35 and to assess the steady-state PK of 600 mg of gemcabene calcium salt hydrate Crystal Form 1 having PSD90 of 52 μm (Tablet F×2).
Gemcabene calcium salt hydrate Crystal Form 1 having PSD90 of 52 μm was administered orally as a single dose of 600 mg, given as two 300 mg tablets (300-mg Tablet F×2) (with 240 mL of water). Gemcabene calcium salt hydrate Crystal Form 1 having PSD90 of 52 μm (600 mg) was administered at the same time each day.

[2] = female, human, in vivo
Experimental: as §1
as §2, with “F×2). […]” for “F×2).”

[3] = Steady-state pharmacokinetics of gemcabene at 300, 600, 900 mg/day in FH patients; type: in vivo, human; conditions: for Cmax / AUC(0-t) / CL/F: mean
Experimental: This was an open-label, dose-finding, 3-period, 3-treatment study using successively escalating doses of 300 mg, 600 mg, and 900 mg gemcabene calcium salt hydrate Crystal Form 1 having PSD90 of 52 μm in patients clinically diagnosed with familial hypercholesterolemia (FH). The treatment plan was for each of 8 patients to receive each of the successive doses, daily, for 4 weeks at a time with no interruption in gemcabene calcium salt hydrate Crystal Form 1 dosing between the dose levels. That is, the 8 FH patients were administered daily oral doses of gemcabene calcium salt hydrate Crystal Form 1 having PSD90 of 52 μm at 300 mg/day on Days 1-28, 600 mg/day on Days 29-56, and 900 mg/day on Days 57-84. Pharmacokinetic plasma samples were collected pre-dose and 0.5, 1, 2, 3, 5, and 12 hours post-dose on Day 28, Day 56, and Day 84. Additional (trough) samples were collected pre-dose on Day 14, Day 42, Day 70, and at the Early Termination Visit (if applicable). Plasma from these samples were analyzed for gemcabene concentrations and the data used for PK analysis. Plasma sample concentrations were available for pharmacokinetic analysis for all but 1 patient for whom no results were reported following the 900 mg dose on Day 84. Since there were no days off between dose levels, the starting plasma concentration for the 600 mg and 900 mg treatment periods was the steady state concentration for 300 mg and 600 mg, respectively.
During Days 1-28, patients received one 300-mg strength tablet containing gemcabene calcium salt hydrate Crystal Form 1 having PSD90 of 52 μm (Tablet D); during the Days 29-56, patients received two 300-mg strength tablets (2× Tablet D); and during the Days 57-84, patients received three 300-mg strength tablets (3× Tablet D) per day.
PK parameter estimates were derived by standard non-compartmental analysis methods using a validated installation of Phoenix® WinNonlin® version 6.4. The actual sampling times were used in the PK parameter calculations.
All plasma concentrations reported as missing were treated as missing. Steady state was assumed following QD administration for 28 days and therefore, plasma gemcabene concentrations at 24 hours post-dose were used as the pre-dose concentrations.
The following gemcabene PK parameters were calculated for each patient from the plasma concentration-time data:
AUClast and AUC(0-24) were calculated by numeric integration using the trapezoidal rule with linear up and log down interpolation.
The criterion for dose proportionality is 95% CI around the slope containing the value “1”.
The individual patient and gemcabene concentration-time data are listed using the number of significant digits or decimal places provided by the bioanalytical lab and nominal sample times, and summarized descriptively in tabular formats by dose level, and visit (for trough samples).

CC(C)(CCCCOCCCCC(C)(C)C(=O)O)C(=O)O [gemcabene, 6-(5-carboxy-5-methyl-hexyloxy)-2,2-dimethyl-hexanoic acid]
concentration at 6 day ([1]; Day 6, Treatment B, read-out: mean plasma gemcabene trough concentration): 98.8 µg/mL | concentration at 7 day ([1]; Day 7, Treatment B, read-out: mean plasma gemcabene trough concentration): 106 µg/mL | concentration at 8 day ([1]; Day 8, Treatment B, read-out: mean plasma gemcabene trough concentration): 104 µg/mL | Cmax ([1]; steady state, read-out: mean Cmax,ss): 178 µg/mL | subjects with drug-related TEAE (constipation) [2]: 1 subject | dose proportionality of AUC(0-24) ([3]; 300 mg/day to 900 mg/day): increased dose proportionally | dose proportionality of Cmax ([3]; 300 mg/day to 900 mg/day): slightly less than dose proportional | Cmax ([3]; human, oral, 300 mg/day (Tablet D), Day 28 steady state, FH patients, plasma, n=8): 84.8 µg/mL | Cmax ([3]; human, oral, 600 mg/day (2× Tablet D), Day 56 steady state, FH patients, plasma, n=8): 149 µg/mL | Cmax ([3]; human, oral, 900 mg/day (3× Tablet D), Day 84 steady state, FH patients, plasma, n=7): 195 µg/mL | AUC(0-t) ([3]; human, plasma, oral, 300 mg/day, 300 mg/day (Tablet D), steady state, FH patients, n=8, read-out: AUC0-24): 1550 µg·h/mL | AUC(0-t) ([3]; human, plasma, oral, 300 mg/day, 300 mg/day (Tablet D), steady state, FH patients, n=8, read-out: AUClast): 1590 µg·h/mL | AUC(0-t) ([3]; human, plasma, oral, 600 mg/day, 600 mg/day (2× Tablet D), steady state, FH patients, n=8, read-out: AUC0-24): 2680 µg·h/mL | AUC(0-t) ([3]; human, plasma, oral, 600 mg/day, 600 mg/day (2× Tablet D), steady state, FH patients, n=8, read-out: AUClast): 2700 µg·h/mL | AUC(0-t) ([3]; human, plasma, oral, 900 mg/day, 900 mg/day (3× Tablet D), steady state, FH patients, n=7, read-out: AUC0-24): 3530 µg·h/mL | AUC(0-t) ([3]; human, plasma, oral, 900 mg/day, 900 mg/day (3× Tablet D), steady state, FH patients, n=7, read-out: AUClast): 3490 µg·h/mL | Tmax ([3]; human, plasma, oral, 300 mg dose level, after 28 daily doses, min-max 1.0-2.0 h, read-out: Median Tmax): 1.6 h | CL/F ([3]; human, plasma, oral, 300 mg/day (Tablet D), steady state, FH patients, n=8): 3.55 mL/min | Tmax ([3]; human, plasma, oral, 300 mg/day (Tablet D), steady state, FH patients, median, n=8, read-out: Tmax): 1.6 h | Tmax ([3]; human, plasma, oral, 600 mg dose level, after 28 daily doses, min-max 0.93-3.0 h, read-out: Median Tmax): 1.5 h | CL/F ([3]; human, plasma, oral, 600 mg/day (2× Tablet D), steady state, FH patients, n=8): 3.9 mL/min | Tmax ([3]; human, plasma, oral, 600 mg/day (2× Tablet D), steady state, FH patients, median, n=8, read-out: Tmax): 1.5 h | Tmax ([3]; human, plasma, oral, 900 mg dose level, after 28 daily doses, min-max 0.98-3.0 h, read-out: Median Tmax): 1.9 h | CL/F ([3]; human, plasma, oral, 900 mg/day (3× Tablet D), steady state, FH patients, n=7): 4.52 mL/min | Tmax ([3]; human, plasma, oral, 900 mg/day (3× Tablet D), steady state, FH patients, median, n=7, read-out: Tmax): 1.9 h | concentration at 14 day of the 900 mg/day period ([3]; human, plasma, oral, 900 mg/day treatment period, Day 14, read-out: trough gemcabene plasma concentration, patient 006-003): 122 µg/mL | concentration at 28 day of the 900 mg/day period ([3]; human, plasma, oral, 900 mg/day treatment period, Day 28, read-out: trough gemcabene plasma concentration, patient 006-003): 43.5 µg/mL | Tmax ([3]; human, plasma, oral, 300 to 900 mg/day, read-out: median Tmax values across dose levels): 1.5 to 1.9 h
